Assay results published in patent US20090088345A1, “NECESSARY AND SUFFICIENT REAGENT SETS FOR CHEMOGENOMIC ANALYSIS” (priority 2004, published 2009).

System: PPARα signature
Experiment: Scalar product (signature score) of compound treatments against PPARα gene signatures from rat liver microarray expression profiles
Type: in vivo
Conditions: previous observation, original PPARα signature
Method: “Scalar product” (or “Signature score”) as used herein refers to the sum of impacts for all genes in a signature less the bias for that signature.
The detailed description of the construction of this chemogenomic dataset is described in Examples 1 and 2 of Published U.S. Pat. Appl. No. 2005/0060102 A1, published Mar. 17, 2005, which is hereby incorporated by reference for all purposes. Briefly, in vivo short-term repeat dose rat studies were conducted on over 580 test compounds, including marketed and withdrawn drugs, environmental and industrial toxicants, and standard biochemical reagents. Rats (three per group) were dosed daily at either a low or high dose. The low dose was an efficacious dose estimated from the literature and the high dose was an empirically-determined maximum tolerated dose, defined as the dose that causes a 50% decrease in body weight gain relative to controls during the course of the 5 day range finding study. Animals were necropsied on days 0.25, 1, 3, and 5 or 7. […]
Log10-ratios are computed for each gene as the difference of the averaged logs of the experimental signals from (usually) three drug-treated animals and the averaged logs of the control signals from (usually) 20 mock vehicle-treated animals. To assign a significance level to each gene expression change, the standard error for the measured change between the experiments and controls is computed. […]

CC(C)(Oc1ccc(Cl)cc1)C(=O)O [clofibric acid]
scalar product against the PPARα signature: weakest of the known PPARα agonists
